The results in this text go back to US20250214990A1, “DIACYLGLYCEROL KINASE (DGK) ALPHA INHIBITORS AND USES THEREOF” (Insilico Medicine IP Limited, priority 2022, published 2025).

In one test the target is T1, DGKA (Homo sapiens, UniProt P23743).
T1 construct: purchased SignalChem D21-10BG
In words: DGKA Inhibition ADP-Glo Assay. The conditions noted are these: 40 μM ATP. In kind it is biochemical. The procedure:
The DGKA inhibition reactions were performed using ADP-Glo assay. The reactions were carried out in 50 mM HEPES, 100 mM NaCl, 10 mM MgCl2, 1 mM CaCl2, 0.005% TritonX-100 and 1 mM DTT as working solution (pH=7.5). 30 nL DMSO solution of each test compound (Top concentration […] with 10 point, 4-fold dilution series for each compound) were transferred to 384 well plate by Echo and 5 μL DGKA (SignalChem, D21-10BG) enzyme working solution at 2× final reaction concentration was added to each well. After incubated at 25° C. for 15 minutes, 5 μL substrate working solution contain 40 μM ATP (Promega, V915B) and 200 µM DLG (SignalChem, D430-59) were added to initiate reaction. After enzymatic reaction at 25° C. for 60 min, ADP Glo assay reagents (Promega, V9102) were added and luminescence was recorded using an EnVision following the instruction of manual. […] The IC50 value was calculated via a regression analysis of the inhibition rate.
A general note: In ADP-Glo the light output rises with the ADP produced.

In a further test the test system is Human Pan T cells. In words: IL-2 Release Detection Assay. In kind it is cell-based. The conditions noted are these: T-cell; for EC50: IL-2 in supernatant by ELISA, anti-CD3 pre-coated plate, 24 hours; for maximal fold induction: Top activation/DMSO control; for activity at 0.1 µM: curve value at 100 nM/DMSO control*100%, read-out: Activation % at 100 nM. The procedure:
Isolate Human Pan T cells from PBMC according to T cell isolation kit (Stemcell, 17951). The suspend T cell in RPMI 1640 medium containing 10% FBS, 1% PS and 55 µM β-Mer at a density of 3*10^6 cells/well/3 ml are seeded into 6 well plate, recovered overnight at 37° C.&[…]. Harvest overnight recovered T cells are suspended in fresh RPMI1640 medium containing 10% FBS, 1% PS and 55 μM f-Mer, seeded 1*10^5/well/200 μl cells into the anti-CD3 pre-coated 96 well plate. Add dilutions of compounds into the cells and incubate at 37° C.&5% CO2 for 24 hours. IL-2 in cell supernatant was detected by ELISA Kit (R&D, DY202). Fit the compound EC50 in non-linear regression equation: Y=Bottom+(Top−Bottom)/(1+10^((Log EC50−X)*HillSlope)), X=compound concentration, Y=Activation %. Top and Bottom: Plateaus in same units as Y. Log EC50: same log units as X. Activation fold: Top activation/DMSO control. Activation % at 100 nM: Activation of non-linear regression equation curve at the concentration of 100 nM/DMSO control*100%.
A general note: An ELISA detects its analyte on a solid surface through an enzyme-linked reagent.

Each structure is given as a SMILES string. Bounds are passed on as bounds.

T1 sequence (P23743 whole entry): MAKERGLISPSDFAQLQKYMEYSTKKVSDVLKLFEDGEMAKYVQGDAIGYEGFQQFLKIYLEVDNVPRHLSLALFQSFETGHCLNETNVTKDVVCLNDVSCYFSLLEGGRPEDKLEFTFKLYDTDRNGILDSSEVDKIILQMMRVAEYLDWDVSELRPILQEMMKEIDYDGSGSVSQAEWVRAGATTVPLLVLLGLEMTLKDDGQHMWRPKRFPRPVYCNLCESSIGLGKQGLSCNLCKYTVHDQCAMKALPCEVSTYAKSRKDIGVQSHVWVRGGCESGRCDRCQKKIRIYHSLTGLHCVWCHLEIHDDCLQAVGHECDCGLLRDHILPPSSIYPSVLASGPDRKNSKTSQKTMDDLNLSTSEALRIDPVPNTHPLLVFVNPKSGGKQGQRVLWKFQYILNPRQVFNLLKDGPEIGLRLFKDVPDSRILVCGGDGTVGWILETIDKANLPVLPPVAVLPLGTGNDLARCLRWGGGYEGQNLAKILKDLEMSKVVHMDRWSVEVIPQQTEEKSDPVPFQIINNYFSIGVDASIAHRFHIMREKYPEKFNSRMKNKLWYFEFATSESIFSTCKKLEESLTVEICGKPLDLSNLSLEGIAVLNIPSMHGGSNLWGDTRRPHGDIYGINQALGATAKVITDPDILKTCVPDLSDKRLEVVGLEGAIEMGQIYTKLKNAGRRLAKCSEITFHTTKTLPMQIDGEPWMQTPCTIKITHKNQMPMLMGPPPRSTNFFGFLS

For the molecule `Cn1c(=O)cc(N2CCOCc3c(C#CC4(C(F)(F)F)CC4)cccc32)c2cc(Cl)ccc21` [Example 3, 6-chloro-1-methyl-4-(6-((1-(trifluoromethyl)cyclopropyl)ethynyl)-2,3-dihydrobenzo[e][1,4]oxazepin-1(5H)-yl)quinolin-2(1H)-one], the IC50 – broadly, the concentration at which inhibition is half-maximal – against DGKA fell in the range of 1 to 10 nM. Moreover, in the test with Human Pan T cells, the 50% effective concentration (EC50) (as a rule, the concentration at which the effect is half-maximal) was 422 nM; the maximal fold induction (in general, the signal under treatment as a multiple of the control signal) stood at 6.3; the activity at 0.1 µM was 247%.
Taken in the same sequence, the figures for `Cn1c(=O)cc(N2CCOCc3c(C#CC4(C(F)(F)F)CC4)cccc32)c2cc(C#N)ccc21` [Example 4, 1-methyl-2-oxo-4-(6-((1-(trifluoromethyl)cyclopropyl)ethynyl)-2,3-dihydrobenzo[e][1,4]oxazepin-1(5H)-yl)-1,2-dihydroquinoline-6-carbonitrile] were 1 to 10 nM, 479 nM, 10 and 313%.
`Cn1c(=O)nc(N2CCOCc3c(C#CC4(C(F)(F)F)CC4)cccc32)c2cc(F)ccc21` [Example 9, 6-fluoro-1-methyl-4-(6-((1-(trifluoromethyl)cyclopropyl)ethynyl)-2,3-dihydrobenzo[e][1,4]oxazepin-1(5H)-yl)quinazolin-2(1H)-one]: the IC50 against DGKA is under 1 nM. For the same molecule, in the test with Human Pan T cells, a half-maximal effect (EC50) was put at 1370 nM, the maximal fold induction amounted to 13.2 and the activity at 0.1 µM came to 180%.
For `Cn1c(=O)c(C#N)c(N2CCOCc3c(C#CC4(C(F)(F)F)CC4)cccc32)c2cc(F)ccc21` [Example 10, 6-fluoro-1-methyl-2-oxo-4-(6-((1-(trifluoromethyl)cyclopropyl)ethynyl)-2,3-dihydrobenzo[e][1,4]oxazepin-1(5H)-yl)-1,2-dihydroquinoline-3-carbonitrile], the IC50 on DGKA fell in the range of 1 to 10 nM. For the same molecule, in the test with Human Pan T cells, the response was half-maximal at 2610 nM (EC50), the maximal fold induction was 5.8 and the activity at 0.1 µM stood at 95.5%.
Taken in the same sequence, the figures for `Cn1c(=O)nc(N2CCOCc3c(C#CC4(C(F)(F)F)CC4)cccc32)c2cc(Cl)c(OC3CCOC3)cc21` (stereo not drawn) [Example 11, 6-chloro-1-methyl-7-((tetrahydrofuran-3-yl)oxy)-4-(6-((1-(trifluoromethyl)cyclopropyl)ethynyl)-2,3-dihydrobenzo[e][1,4]oxazepin-1(5H)-yl)quinazolin-2(1H)-one] were under 1 nM, 335 nM, 8.6 and 324%.
Taken in the same sequence, the figures for `Cn1c(=O)nc(N2CCOCc3c(C#CC4(C(F)(F)F)CC4)cccc32)c2cc(C#N)c(OCCO)cc21` [Example 14, 7-(2-hydroxyethoxy)-1-methyl-2-oxo-4-(6-((1-(trifluoromethyl)cyclopropyl)ethynyl)-2,3-dihydrobenzo[e][1,4]oxazepin-1(5H)-yl)-1,2-dihydroquinazoline-6-carbonitrile] were under 1 nM, 265 nM, 15.3 and 639%.
Taken in the same sequence, the figures for `COCCOc1cc2c(cc1Cl)c(N1CCOCc3c(C#CC4(C(F)(F)F)CC4)cccc31)nc(=O)n2C` [Example 17, 6-chloro-7-(2-methoxyethoxy)-1-methyl-4-(6-((1-(trifluoromethyl)cyclopropyl)ethynyl)-2,3-dihydrobenzo[e][1,4]oxazepin-1(5H)-yl)quinazolin-2(1H)-one] were under 1 nM, 1000 nM, 10.2 and 202%.
Regarding `Cn1c(=O)nc(N2CCOCc3c(C#CC4(C(F)(F)F)CC4)cccc32)c2cc(Cl)c(N3CCOCC3)cc21` [Example 19, 6-chloro-1-methyl-7-morpholino-4-(6-((1-(trifluoromethyl)cyclopropyl)ethynyl)-2,3-dihydrobenzo[e][1,4]oxazepin-1(5H)-yl)quinazolin-2(1H)-one], the IC50 at DGKA was in the range of 1 to 10 nM. Also, in the test with Human Pan T cells, the concentration giving a half-maximal response (EC50) came out at 2190 nM, the maximal fold induction was found to be 25.2 and the activity at 0.1 µM was 234%.
Taken in the same sequence, the figures for `Cn1c(=O)nc(N2CCOCc3c(C#CC4(C(F)(F)F)CC4)cccc32)c2cc(Cl)c(OCCCN)cc21` [Example 20, 7-(3-aminopropoxy)-6-chloro-1-methyl-4-(6-((1-(trifluoromethyl)cyclopropyl)ethynyl)-2,3-dihydrobenzo[e][1,4]oxazepin-1(5H)-yl)quinazolin-2(1H)-one] were 1 to 10 nM, 62.8 nM, 1.7 and 173%.
For `Cn1c(=O)nc(N2CCOCc3c(C#CC4(C(F)(F)F)CC4)cccc32)c2cc(Cl)c(OC3CCOCC3)cc21` [Example 25, 6-chloro-1-methyl-7-((tetrahydro-2H-pyran-4-yl)oxy)-4-(6-((1-(trifluoromethyl)cyclopropyl)ethynyl)-2,3-dihydrobenzo[e][1,4]oxazepin-1(5H)-yl)quinazolin-2(1H)-one], in that order: under 1 nM, 243 nM, 5.4 and 275%.
Taken in the same sequence, the figures for `Cn1c(=O)nc(N2CCOCc3c(C#CC4(C(F)(F)F)CC4)cccc32)c2cc(Cl)c(OCCN)cc21` [Example 32, 7-(2-aminoethoxy)-6-chloro-1-methyl-4-(6-((1-(trifluoromethyl)cyclopropyl)ethynyl)-2,3-dihydrobenzo[e][1,4]oxazepin-1(5H)-yl)quinazolin-2(1H)-one] were under 1 nM, 702 nM, 33.9 and 540%.
`Cn1c(=O)nc(N2CCOCc3c(C#CC4(C(F)(F)F)CC4)cccc32)c2cc(C#N)c(OCCN)cc21` [Example 33, 7-(2-aminoethoxy)-1-methyl-2-oxo-4-(6-((1-(trifluoromethyl)cyclopropyl)ethynyl)-2,3-dihydrobenzo[e][1,4]oxazepin-1(5H)-yl)-1,2-dihydroquinazoline-6-carbonitrile] displayed an IC50 on DGKA of under 1 nM. In the test with Human Pan T cells, the concentration for a half-maximal effect (EC50) was 714 nM, the maximal fold induction was found to be 38.4 and the activity at 0.1 µM stood at 631%.
The molecule `CCc1cccc2c1COCCN2c1nc(=O)n(C)c2cc(OCCO)c(C#N)cc12` [Example 45, 4-(6-ethyl-2,3-dihydrobenzo[e][1,4]oxazepin-1(5H)-yl)-7-(2-hydroxyethoxy)-1-methyl-2-oxo-1,2-dihydroquinazoline-6-carbonitrile] yielded a half-inhibitory concentration (IC50) against DGKA of 1 to 10 nM.
On the same count and under the same terms, the value for `Cn1c(=O)nc(N2CCOCc3c(N4CCCC4)cccc32)c2cc(C#N)c(OCCO)cc21` [Example 46, 7-(2-hydroxyethoxy)-1-methyl-2-oxo-4-(6-(pyrrolidin-1-yl)-2,3-dihydrobenzo[e][1,4]oxazepin-1(5H)-yl)-1,2-dihydroquinazoline-6-carbonitrile] was under 1 nM; that for `Cn1c(=O)nc(N2CCOCc3c(C#CC4CC4)cccc32)c2cc(C#N)c(OCCO)cc21` [Example 47, 4-(6-(cyclopropylethynyl)-2,3-dihydrobenzo[e][1,4]oxazepin-1(5H)-yl)-7-(2-hydroxyethoxy)-1-methyl-2-oxo-1,2-dihydroquinazoline-6-carbonitrile] was under 1 nM.
